The text below walks through data of patent US7943358B2, “Polymerase enhancing factor (PEF) extracts, PEF protein complexes, isolated PEF protein, and methods for purifying and identifying” (Agilent Technologies, Inc., priority 1997, dated 2011).

Values joined by “and” are separate entries in the source; they are usually repeats but may differ in a detail not shown here. Equal entries are not always repeated.

A short description of series [1]: PCR cycling of dCTP alone, HPLC. The class given is physicochemical. The note with it: 30 cycles. Here is the method:
FIG. 20. Reverse phase HPLC analysis of the products generated by PCR cycling dCTP. dCTP (10 mM in cloned Pfu DNA polymerase PCR buffer) was cycled alone (Panel A) or in the presence of 0.5 ng/μl PEF (Panel 8) or 1.25 U/μl Pfu DNA polymerase (Panel C). Cycling was carried out in a RoboCycler 40 using the following conditions: 95° C. 1 min./30 cycles of: 95° C. 1 min., 60° C. 1 min., 72° C. 10:24 min./72° C. 10 min. 10 μl of the reaction mixtures were chromatographed as described in the FIG. 18 legend. In panel D, the absorbance spectra of dCTP, dUTP, and the product generated from PCR cycling dCTP are compared. The absorbance spectra (200-300 nm) of the following were superimposed: (1) major peak at 8.3-8.8 min. from chromatogram of dCTP+Pfu unheated; (2) peak at 11.867 min. from chromatogram of dUTP in buffer unheated; (3) peak 12.150 from chromatogram C (FIG. 20) showing dCTP+Pfu cycled.
dUTP production was also measured during PCR cycling. A dCTP solution (10 mM dCTP in cloned Pfu DNA polymerase PCR buffer) was subject to PCR cycling in a RoboCycler 40 using the cycling conditions described for the 5.2 kb “on/off” system (example 1). Products generated during PCR were analyzed by HPLC as described above. After 30 cycles, the following products were evident: 79% dCTP, 19% dCDP, 1.8% dCMP, and 0.064% dUTP (FIG. 20, panel A). […] When dCTP was cycled in the presence of Pfu DNA polymerase (50×PCR conditions, 10 mM dCTP and 1.25 U Pfu/μl reaction mix) there was no difference in the amount of dCDP, dCMP, or dUTP produced (FIG. 20, panel C). However, when dCTP was cycled in the presence of PEF (50×PCR conditions, 10 mM dCTP and 0.5 ng PEF/μl reaction mix), the following products were produced: 73% dCTP, 19% dCDP, and 8% dCMP (FIG. 20, panel B).

Series [2] in a line: Heat treatment of dCTP at 95° C., reverse phase HPLC. The class given is physicochemical. Here is the method: FIG. 18. Reverse phase HPLC analysis of the products generated by heat-treatment of dCTP. dCTP (10 mM in cloned Pfu DNA polymerase PCR buffer) was heated at 95° C. in thin-walled tubes in a RoboCycler 40 temperature gradient block. Incubations were carried out for the following length of time: 0 (panel A), 1 hour (panel 6), or 4 hours (panel C). 10 μl of the reaction mixtures were loaded onto a Waters Delta-pak C18 column (300 angstrom/15 μm), equilibrated in 50 mM triethylammonium acetate, pH (7.0) (A). Products were eluted with acetonitrile (B) at 2 ml/min., using the following gradient: 0% B for 5 minutes, 0-10% B over 20 minutes. Absorbence of the eluate was monitored with a photodiode array detector, and peak areas were integrated at 260 nm. To the right of panels A and C are shown the same chromatograms re-integrated at a higher sensitivity. In panel D, 10 μl of 10 mM dUTP (in cloned Pfu DNA polymerase PCR buffer) was chromatographed.
dUTP, however, is not intentionally added to PCR reactions but may be generated by spontaneous deamination of dCTP during the high temperatures used in PCR cycling (Jens-Peter Horst and Hans-Joachim Fritz. (1996) The EMBO Journal 15; 5459-5469). To assess the extent of dCTP deamination to dUTP during PCR, we incubated dCTP (10 mM) at 95° C. (PCR denaturation temperature) in the presence of cloned Pfu DNA polymerase PCR buffer. The products of heat treatment were analyzed by reverse phase-HPLC (as described above) and peak assignments were made by comparing retention times to those of standards. […] A minor peak at 12.38 minutes was also produced (0.049%/1 hr.; 0.116%/4 hr.), which was identified as dUTP, based upon its retention time (dUTP standard=12.10 minutes; panel D) and absorbence maximum.

The target in series [3] is T1, Pfu DNA polymerase (Pyrococcus furiosus, UniProt P61875).
T1 sequence (P61875 1-775): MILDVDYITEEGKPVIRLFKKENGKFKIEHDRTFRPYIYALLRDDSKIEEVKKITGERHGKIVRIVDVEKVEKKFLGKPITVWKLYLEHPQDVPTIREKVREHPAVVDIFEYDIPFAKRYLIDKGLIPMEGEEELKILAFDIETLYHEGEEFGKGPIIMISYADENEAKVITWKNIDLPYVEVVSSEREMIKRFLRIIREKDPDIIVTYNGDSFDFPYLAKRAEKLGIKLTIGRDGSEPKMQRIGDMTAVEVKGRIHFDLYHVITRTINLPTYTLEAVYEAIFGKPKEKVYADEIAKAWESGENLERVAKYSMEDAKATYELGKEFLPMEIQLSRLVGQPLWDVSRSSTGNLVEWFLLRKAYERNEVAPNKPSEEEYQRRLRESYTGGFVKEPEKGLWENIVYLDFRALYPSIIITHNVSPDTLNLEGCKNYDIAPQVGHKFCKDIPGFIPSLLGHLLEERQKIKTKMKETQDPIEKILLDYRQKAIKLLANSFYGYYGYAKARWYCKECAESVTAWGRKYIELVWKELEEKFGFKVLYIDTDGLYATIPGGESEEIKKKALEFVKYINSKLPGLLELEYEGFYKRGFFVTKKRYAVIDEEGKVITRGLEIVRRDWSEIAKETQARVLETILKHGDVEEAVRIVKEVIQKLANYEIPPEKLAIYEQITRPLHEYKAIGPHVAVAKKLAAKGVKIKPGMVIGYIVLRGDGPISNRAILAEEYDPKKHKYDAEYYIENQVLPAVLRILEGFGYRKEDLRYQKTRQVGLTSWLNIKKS
Kind of series: 0.9 kb α1-antitrypsin PCR in absence or presence of dUTP. It is filed as biochemical. Here is the method: A relatively small (0.9 kb) fragment of the human α1-antitrypsin gene was amplified in the absence or presence of dUTP. PCR reaction mixtures contained the following (in a 100 μl volume): 1× Cloned Pfu polymerase buffer; 200 μM each, dCTP, dGTP, dATP; 200 ng oligo F91-23 (100 ng/μl); 200 ng oligo R980-23 (100 ng/μl); 125 ng Human genomic DNA; 2.5 units Pfu DNA polymerase; 200 μM total of (dTTP and dUTP) or (dTTP+PEF generated dUMP).
PCR cycling was carried out as follows: 95° C. for 1 minute (1 cycle); 95° C. for 1 minute—58° C. for 1 minute—72° C. for 2 minutes (30 cycles).
Seven ng of PEF can reverse the inhibition caused by as much as 20 μM dUTP (data not shown). The preferred amount of PEF or P45 used in a particular reaction can be optimized according to the principles provided here or by methods for quantifying amplification reactions known in the art.

Series [4] addresses T1, Pfu DNA polymerase. Kind of series: 0.9 kb α1-antitrypsin PCR with unrelated dU-containing or control oligonucleotide. The class given is biochemical. The note with it: per 100 ul reaction.
Series [5] is described as follows: Reverse phase HPLC analysis of dCTP conversion. It is filed as biochemical. As for the experimental part: The similarity of P45 to dCTP deaminases prompted us to test whether dCTP or other nucleotide triphosphates were substrates of PEF/P45. PEF was incubated with dCTP or dUTP and the reaction products were separated by reverse phase HPLC. Reaction mixtures (50 μl) containing 1× cloned Pfu polymerase buffer, 10 mM dCTP or dUTP, and 700 ng PEF (or 5 μl of cloned p45 (˜100 ng) or nothing (neg. control)) were incubated at 72° C. for 1 hour. The samples were injected on a […] Waters Delta-pak C-18 column (300 angstrom/15 μm), equilibrated in 50 mM triethylammonium acetate, pH (7.0) (A). Products were eluted with acetonitrile (B) at 2 ml/min. using the following gradient: 0% B for 5 minutes, 0-10% B over 20 minutes. Absorbence of the eluate was monitored with a photodiode array detector, and peak areas were integrated at 260 nm.

Regarding `Nc1ccn([C@H]2C[C@H](O)[C@@H](COP(=O)(O)OP(=O)(O)OP(=O)(O)O)O2)c(=O)n1` [dCTP], in series [1], the “dCDP after PCR cycling” value is reported as 19%, the “dCMP after PCR cycling” value worked out at 1.8%, the “dCTP after PCR cycling” value came to 79% and the “dUTP after PCR cycling” value is 0.064%. In series [2] (1 hr), the “dCMP formed from dCTP” value is given as 2.8% and the “dUTP formed from dCTP (12.38 minute peak)” value came out at 0.049%. In addition, the “dCDP formed from dCTP” value in series [2] (1 hr, 10 mM in cloned Pfu PCR buffer) is listed as 22%. Also, in series [2] (4 hr), the “dCDP formed from dCTP” value is recorded as 41%, the “dCMP formed from dCTP” value worked out at 25% and the “dUTP formed from dCTP (12.38 minute peak)” value was 0.116%.

`O=c1ccn([C@H]2C[C@H](O)[C@@H](COP(=O)(O)O)O2)c(=O)[nH]1` [dUMP]: on Pfu DNA polymerase [3] (at concentrations of 20 μM), the “inhibition of Pfu polymerase-based PCR” value is “not inhibitory”.

Take `O=c1ccn([C@H]2C[C@H](O)[C@@H](COP(=O)(O)OP(=O)(O)OP(=O)(O)O)O2)c(=O)[nH]1` [dUTP, deoxyuracil triphosphate]: the “dUTP concentration partially inhibiting amplification of the 900 bp product” value at Pfu DNA polymerase [3] (0.1% of the dTTP+dUTP pool) was found to be 0.2 µM. Besides, at Pfu DNA polymerase [3] (as low as, 1% of the dTTP+dUTP pool), the “dUTP concentration completely inhibiting amplification of the 900 bp product” value came out at 2 µM.

For “control oligonucleotide: control oligo with dT rather than dU (SEQ ID NO: 86) (GGTTTTCCCAGTCACGACGTTGTAAAACGACGGCCAGT; DNA, backbone not given here)”, the “amount of oligo showing inhibition of the Pfu-based PCR” value with Pfu DNA polymerase [4] is 16 pmol and 8 pmol.

Take “dU oligo: unrelated primer complementary to M13 DNA containing 9 dUs instead of dTs (SEQ ID NO: 87) (GGUUUUCCCAGUCACGACGUUGUAAAACGACGGCCAGU; DNA, backbone, methylation of C and T or U not given here; further chemistry not fully specified)”: the “amount of oligo showing inhibition of the Pfu-based PCR” value in the series with Pfu DNA polymerase [4] came out at 0.8 pmol.

B1: P45: 45 kD component of the Pfu PEF complex, functions as a dUTPase (SEQ ID NO.: 71) (protein, listed as Pyrococcus furiosus)
chain: MLLPDWKIRKEILIEPFSEESLQPAGYDLRVGREAFVKGKLIDVEKEGKVVIPPREYALILTLERIKLPDDVMGDMKIRSSLAREGVIGSFAWVDPGWDGNLTLMLYNASNEPVELRYGERFVQIAFIRLEGPARNPYRGNYQGSTRLAFSKRKKL
Turning to B1, the “deamination of dCTP” value in series [5] is “No deamination”.
